In patent US9119821B2, “Use of methionine sulfoximine to treat acute liver failure and other diseases caused by an inflammatory cytokine response” (priority 2010, dated 2015):

Experiments:
[1] = test system: MLP 29 cells; experiment: Flow cytometry of apoptosis induced by TNF-α plus actinomycin D; format: cell-based, mouse; conditions: 9 mM, one hour preincubation, then TNF-α plus actinomycin D for 10 hours
Description: Output of multiparametric FACS analyses. Mouse liver progenitor cells, MLP 29, are incubated for one hour with either no addition (first lane, FIG. 3C(a)), 9 mM MSO (second lane, FIG. 3C(b)), or 9 mM BSO (third lane, FIG. 3C(c)), then exposed for 10 hours to either no addition—(BAS, first column), TNF-α plus actinomycin D (second column), or actinomycin D alone (third column). Viable cells (V) are delimited by the quadrant. Apoptotic cells display mitochondrial depolarization (reduced TMRM staining) and/or expose phosphatidylserine on their surface (increased Annexin V-FITC staining). Propidium iodide-positive, i.e. dead cells (PI), are evaluated on a PI vs TMRM diagram (not shown); these cells are excluded from the reported plots, but the percentage of propidium iodide positive (i.e. dead) cells is shown in each box (PI), as is the percentage of viable cells (V);
Samples were analyzed on a FACSCalibur flow cytometer (Becton Dickinson, San Diego, Calif.). Data acquisition was performed using CellQuest software and data analysis with WinMD1 software. Each experiment was repeated at least four times.

[2] = biological target: T1, GGCS (Homo sapiens, UniProt P48506); conditions: known from the literature; cited from earlier work
T1 sequence (P48506 1-637): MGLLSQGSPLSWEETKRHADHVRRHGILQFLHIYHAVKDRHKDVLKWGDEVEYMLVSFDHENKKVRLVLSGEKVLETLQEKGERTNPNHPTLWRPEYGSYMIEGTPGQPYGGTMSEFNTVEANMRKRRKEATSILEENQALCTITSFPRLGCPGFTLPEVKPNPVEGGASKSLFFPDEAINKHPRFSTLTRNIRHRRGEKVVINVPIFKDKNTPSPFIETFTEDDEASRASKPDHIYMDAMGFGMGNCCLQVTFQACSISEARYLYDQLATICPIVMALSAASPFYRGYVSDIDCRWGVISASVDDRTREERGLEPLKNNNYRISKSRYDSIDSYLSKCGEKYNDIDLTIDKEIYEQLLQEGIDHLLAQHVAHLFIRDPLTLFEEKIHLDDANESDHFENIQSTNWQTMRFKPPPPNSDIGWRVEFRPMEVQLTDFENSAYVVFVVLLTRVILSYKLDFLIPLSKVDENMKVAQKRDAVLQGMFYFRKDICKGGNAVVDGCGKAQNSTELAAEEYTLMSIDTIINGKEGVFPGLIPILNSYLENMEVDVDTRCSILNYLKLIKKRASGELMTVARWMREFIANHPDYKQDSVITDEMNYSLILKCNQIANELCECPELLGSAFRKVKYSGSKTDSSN

[3] = test system: CD1 mice treated with LPS/D-GalN; experiment: Survival of mice with LPS/D-GalN induced acute liver failure; format: in vivo, mouse; conditions: 890 mg/kg IP 3 hours prior to LPS/D-GalN
Source text: Six to eight week old CD1 mice are obtained from Charles River. Animals were housed in Wayne State University or University of Padova, Vallisneri Interdepartmental Complex animal quarters until the time of the experiment. Food was withdrawn the night before the day of the experiment. All experiments were approved by the Animal Investigation Committee of Wayne State University or by the Authority of the University of Padova and authorized by the Italian Ministry of Health.
Animals were divided into two groups. Group one animals consisted of both male and female mice injected with LPS and D-GalN to induce hepatic failure. Survival was monitored post LPS/D-GalN administration and the time of injection was considered to be zero hour (t=0). Group two animals consisted of mice injected with MSO three hours prior to LPS and D-GalN administration. […] […] For analysis of the effect of MSO treatment on the cell death pathway activated by the Fas ligand, mice were pre-treated with MSO as described above, and at time zero were injected with Jo2 antibody ([…]).
Animals were monitored continuously post LPS/D-GalN or Jo2 administration. […] The time of death was recorded as hours after LPS/D-GalN injection. Fisher's exact test was used to determine two-tailed p values for the statistical between the treated and untreated groups.

[4] = biological target: T2, glutamine synthetase (Mus musculus, UniProt P15105); experiment: Glutamine synthetase activity in liver extracts of treated mice; format: in vivo; conditions: 890 mg/kg IP 3 hours prior to LPS/D-GalN
T2 construct: liver homogenates were prepared from liver tissue excised and immediately homogenized; from tissue; host or cells: mouse liver homogenate supernatant
T2 sequence (P15105 2-373 limits assumed): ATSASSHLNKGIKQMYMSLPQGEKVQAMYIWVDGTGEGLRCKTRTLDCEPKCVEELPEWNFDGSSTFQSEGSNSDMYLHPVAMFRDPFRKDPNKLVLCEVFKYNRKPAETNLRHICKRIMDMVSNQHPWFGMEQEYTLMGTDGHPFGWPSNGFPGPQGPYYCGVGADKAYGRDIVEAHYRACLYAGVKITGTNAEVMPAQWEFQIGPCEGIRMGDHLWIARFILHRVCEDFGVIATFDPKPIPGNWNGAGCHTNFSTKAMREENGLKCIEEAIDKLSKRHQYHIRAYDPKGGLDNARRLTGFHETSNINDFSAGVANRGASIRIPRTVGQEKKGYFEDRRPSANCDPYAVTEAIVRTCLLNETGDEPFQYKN
Description: Tissue and plasma were collected from male mice, which were divided into two groups. One group was injected with saline three hours prior to LPS/D-GalN injections. The second group was given MSO three hours prior to being injected with LPS/D-GalN. Control mice (t=0) were treated with MSO or saline for 3 hours and then euthanized (not exposed to LPS/D-GalN). After LPS/D-GalN injection at time zero, tissue and plasma samples were collected at one-hour time intervals from 1 to 5 hours.
To analyze enzyme activities liver homogenates were prepared from liver tissue excised and immediately homogenized in ice-cold buffer consisting of 250 mM sucrose, 10 mM Tris and 0.1 mM EGTA with protease inhibitor cocktail (Sigma #P8340). The homogenized tissue was centrifuged at 2375×g for 5 min. The tissue supernatant fraction was frozen on dry ice and stored at −80° C.
Glutamine synthetase was assayed as described by Meister, A. Glutamine synthetase from mammalian tissues. […] The reaction with the substrates glutamine and hydroxylamine was stopped using ferric chloride stop solution (0.37 M FeCl3, 0.67 M HCl, 0.20 M TCA) and the colorimetric product formed—γ-glutamyl hydroxamate—was measured at 535 nm. The absorbance values were converted to activities by comparison to a standard curve of pure glutamyl hydroxamate (a generous gift from Arthur J. Cooper, Department of Biochemistry and Molecular Biology, New York Medical College).

In the case of `CCCCS(=N)(=O)CCC(N)C(=O)O` (centres unmarked) [BSO, buthionine sulfoximine, reference compound], the “rescue of cells from apoptosis induced by TNF-α” value [1] is listed as “neither MSO nor BSO could rescue cells”, the “inhibition of GGCS, effectiveness relative to MSO” value [2] is listed as 100 times and the “effect on survival of mice treated with LPS/D-GalN” value [3] is listed as “no effect”. For the same compound, the survival ([3]; 3 out of 20 treated mice survived) was 15% and the “effect on glutamine synthetase activities” value [4] was “no effect”.
